In article PMC10132805 (Nature Communications, 2023):
Entries after “also recorded” stand apart in the source; their conditions may differ. Like-named read-outs stand apart in the source and are kept apart here. Residues, ends and D or L forms follow the SMILES beside them. No end group written: not given here. *: point of attachment. FITC = O=C1OC2(c3ccc(O)cc3Oc3cc(O)ccc32)c2ccc(NC(=S)*)cc21

Experiments:
Assay type in all cases: binding
[1] = system: 139 human bait protein domains; conditions: for motif_found: motif benchmarking set; for specificity / RiboVD_mean_counts / RiboVD_count_proportions / peptide_counts_proportion: bait YAP1 WW-2 (P46937, 228-266); for RiboVD_mean_counts: mean sequencing counts over replicate selections; for RiboVD_count_proportions: proportion of counts
NEDD4 WW2 = NEDD4 WW2 (Homo sapiens, UniProt P46934); assay: biochemical
NEDD4 WW4 = NEDD4 WW4 (Homo sapiens, UniProt P46934); assay: biochemical
ALIX V = ALIX V (Homo sapiens, UniProt Q8WUM4); assay: biochemical
CLTC NTD = CLTC NTD (Homo sapiens, UniProt Q00610); assay: biochemical
CEP55 EABR = CEP55 EABR (Homo sapiens, UniProt Q53EZ4); assay: biochemical; conditions: for KD: pH 7.5
PABPC1 PABC = PABPC1 PABC (Homo sapiens, UniProt P11940); assay: biochemical
AP2M1 MHD = AP2M1 MHD (Homo sapiens, UniProt Q96CW1); assay: biochemical
[2] = replicate 1 (first entry of cell)
[3] = replicate 2 (second entry of cell)
[4] = replicate 3 (third entry of cell)

NEDD4 WW2, sequence (P46934 767-800 limits assumed): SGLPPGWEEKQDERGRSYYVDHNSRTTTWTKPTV
CLTC NTD, sequence (Q00610 2-479 limits assumed): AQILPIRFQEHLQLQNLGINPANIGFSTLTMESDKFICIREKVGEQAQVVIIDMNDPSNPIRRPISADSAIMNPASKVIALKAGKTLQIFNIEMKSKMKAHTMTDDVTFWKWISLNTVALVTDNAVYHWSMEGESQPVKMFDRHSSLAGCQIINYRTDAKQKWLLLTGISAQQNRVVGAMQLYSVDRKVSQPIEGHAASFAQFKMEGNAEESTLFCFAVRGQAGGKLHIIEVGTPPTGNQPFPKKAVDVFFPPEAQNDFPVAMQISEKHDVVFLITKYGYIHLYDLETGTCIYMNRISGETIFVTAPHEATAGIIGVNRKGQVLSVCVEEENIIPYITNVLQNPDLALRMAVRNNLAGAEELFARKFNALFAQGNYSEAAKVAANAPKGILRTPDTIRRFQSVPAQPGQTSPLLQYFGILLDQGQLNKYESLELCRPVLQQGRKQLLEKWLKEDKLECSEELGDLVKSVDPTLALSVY
CEP55 EABR, sequence (Q53EZ4 160-214 limits assumed): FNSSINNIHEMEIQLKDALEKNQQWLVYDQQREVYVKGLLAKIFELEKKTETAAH
ALIX V, sequence (Q8WUM4 360-702): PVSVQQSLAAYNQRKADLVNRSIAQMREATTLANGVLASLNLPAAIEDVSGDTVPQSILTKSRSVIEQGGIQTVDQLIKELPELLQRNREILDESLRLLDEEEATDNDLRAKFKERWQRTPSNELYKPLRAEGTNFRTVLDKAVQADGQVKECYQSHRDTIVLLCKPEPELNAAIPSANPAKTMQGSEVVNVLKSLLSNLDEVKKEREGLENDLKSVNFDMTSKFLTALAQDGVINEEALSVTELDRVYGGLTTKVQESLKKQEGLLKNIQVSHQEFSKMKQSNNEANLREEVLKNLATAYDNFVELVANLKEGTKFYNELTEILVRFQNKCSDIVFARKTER
PABPC1 PABC, sequence (P11940 542-619 limits assumed): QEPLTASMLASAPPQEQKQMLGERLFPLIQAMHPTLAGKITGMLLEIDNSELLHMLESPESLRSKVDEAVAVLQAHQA
NEDD4 WW4, sequence (P46934 892-925 limits assumed): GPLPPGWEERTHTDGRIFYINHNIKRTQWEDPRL
AP2M1 MHD, sequence (Q96CW1 170-434 limits assumed): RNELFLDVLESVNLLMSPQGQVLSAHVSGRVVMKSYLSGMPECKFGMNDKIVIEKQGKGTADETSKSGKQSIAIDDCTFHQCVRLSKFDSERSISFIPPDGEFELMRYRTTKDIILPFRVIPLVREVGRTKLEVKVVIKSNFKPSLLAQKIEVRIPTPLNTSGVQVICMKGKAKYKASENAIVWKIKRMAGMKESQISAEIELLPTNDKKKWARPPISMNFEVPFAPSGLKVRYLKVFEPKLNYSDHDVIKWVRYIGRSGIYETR

In the case of PVPAPRKPTPAPRTAFR [P08411_1764_1780], the motif_found ([1]; bait CD2AP_SH3_1_Q9Y5K6_2_58) is reported as “TRUE”.

For “EPDQEPPPPYQEQVPVPVYHPTPSQ [RNF11 31-65 (Human)]”, the Kd (NEDD4 WW2) was 15 µM and the Kd (NEDD4 WW4) was 35 µM.

With CC(C)C[C@H](NC(=O)[C@H](CO)NC(=O)[C@@H](NC(=O)[C@H](CC(C)C)NC(=O)[C@@H]1CCCN1C(=O)[C@@H]1CCCN1C(=O)[C@H](Cc1ccc(O)cc1)NC(=O)[C@H](CC(C)C)NC(=O)[C@H](CO)NC(=S)Nc1ccc2c(c1)C(=O)OC21c2ccc(O)cc2Oc2cc(O)ccc21)[C@@H](C)O)C(=O)N[C@@H](CCCNC(=N)N)C(=O)O [FITC - gag 493-502 (HIV1)] ({FITC}-SLYPPLTSLR-OH) the Kd (ALIX V) was 2.6 µM.

MSFGSF [P03317_1835_1840] was tested, and the motif_found ([1]; bait G3BP2_NTF2_1_Q9UN86_1_139) was “TRUE”.

With “GLRRTDLVDFVNGTVDY [RdRp 1840-1855 (SVV)]” the KD (CLTC NTD; pH 7.5) was “Low affinity binder”.

C[C@H](NC(=O)[C@H](CO)NC(=O)[C@H](Cc1ccc(O)cc1)NC(=O)[C@@H]1CCCN1C(=O)[C@@H]1CCCN1C(=O)[C@@H]1CCCN1C(=O)[C@H](CO)NC(=O)[C@H](CC(=O)O)NC(=O)[C@@H](NC(=S)Nc1ccc2c(c1)C(=O)OC21c2ccc(O)cc2Oc2cc(O)ccc21)[C@@H](C)O)C(=O)NCC(=O)O [FITC - UL56 46-55 (HHV2)] ({FITC}-TDSPPPYSAG-OH) showed a Kd (NEDD4 WW2) of 16 µM and a Kd (NEDD4 WW4) of 82 µM.

Work on C[C@H](NC(=O)[C@H](CCC(N)=O)NC(=S)Nc1ccc2c(c1)C(=O)OC21c2ccc(O)cc2Oc2cc(O)ccc21)C(=O)N[C@@H](CCC(N)=O)C(=O)NCC(=O)N1CCC[C@H]1C(=O)N1CCC[C@H]1C(=O)N[C@@H](Cc1ccc(O)cc1)C(=O)N1CCC[C@H]1C(=O)N[C@H](C(=O)N[C@@H](Cc1ccc(O)cc1)C(=O)N1CCC[C@H]1C(=O)NCC(=O)N[C@@H](Cc1ccc(O)cc1)C(=O)O)[C@@H](C)O [FITC - PDCD6IP 797-809 (Human)] ({FITC}-QAQGPPYPTYPGY-OH) yielded a Kd (CEP55 EABR) of 0.31 µM.

In the case of TAPPAYADIGYPMSML, the specificity [1] is reported as 0.889, the RiboVD_mean_counts [1] is reported as 4550 and the RiboVD_count_proportions [1] is reported as 0.1419. The peptide_counts_proportion [1, 2] was 0.002, the peptide_counts_proportion [1, 3] was 0.008 and the peptide_counts_proportion [1, 4] was 0.416.

LPPPEYVPLHEISSKG gave a specificity [1] of 0.991, a RiboVD_mean_counts [1] of 729 and a RiboVD_count_proportions [1] of 0.02141. It also gave a peptide_counts_proportion [1, 2] of 0.029, a peptide_counts_proportion [1, 3] of 0.006 and a peptide_counts_proportion [1, 4] of 0.029.

CC(C)C[C@H](NC(=O)CNC(=O)[C@H](C)NC(=O)[C@@H](N)CO)C(=O)N[C@@H](CC(N)=O)C(=O)N1CCC[C@H]1C(=O)N[C@@H](C)C(=O)N[C@@H](C)C(=O)N[C@H](C(=O)N1CCC[C@H]1C(=O)N[C@@H](Cc1ccccc1)C(=O)N[C@H](C(=O)N1CCC[C@H]1C(=O)N[C@@H](CCCCN)C(=O)N[C@@H](CC(N)=O)C(=O)N[C@@H](CCC(N)=O)C(=O)N[C@@H](Cc1ccc(O)cc1)C(=O)O)C(C)C)C(C)C [P/V/C 183-198 (HeV)] was tested, and the “affinity compared to the peptide from the endogenous PABP inhibitor PAIP2_108-123” value (PABPC1 PABC) was “ten-fold weaker”.

For “QAQGPPYPTYPGYPGY [PDCD6IP 797-812 (Human)]”, the Kd (CEP55 EABR) was roughly 0.3 µM and the KD (CEP55 EABR) was “same order or tighter as the probe; also recorded: Due to the limitatons of our experimental setup we could not calculate the KD values for this peptide, however our experiments suggest very high affinity (mid to low nanomolar)”.

CC[C@H](C)[C@H](NC(=O)[C@H](CC(C)C)NC(=O)[C@H](CC(N)=O)NC(=O)[C@@H](NC(=O)[C@H](CC(=O)O)NC(=S)Nc1ccc2c(c1)C(=O)OC21c2ccc(O)cc2Oc2cc(O)ccc21)[C@@H](C)O)C(=O)N[C@@H](CCC(=O)O)C(=O)N[C@@H](Cc1ccccc1)C(=O)N[C@@H](CC(=O)O)C(=O)N[C@H](C(=O)N[C@@H](CC(N)=O)C(=O)O)[C@@H](C)O [FITC - ARRB2 370-379 (Human)] ({FITC}-DTNLIEFDTN-OH) gave a Kd (CLTC NTD) of 26 µM.

With EPDQEPPPPYQEQVPV [RNF11 31-56 (Human)] the Kd (NEDD4 WW2) was 13 µM and the Kd (NEDD4 WW4) was 44 µM.

“VPVDTNLIEFDTNYAT [ARRB2 367-382 (Human)]” gave a Kd (CLTC NTD) of 40 µM.

Work on MSSLYPSLEDLKVDQA [SDCBP2 1-16 (Human)] yielded a Kd (ALIX V) of 0.29 µM.

With CC(C)[C@H](NC(=O)[C@H](C)NC(=O)[C@@H](N)[C@@H](C)O)C(=O)N[C@@H](C)C(=O)N1CCC[C@H]1C(=O)N1CCC[C@H]1C(=O)N[C@@H](C)C(=O)N1CCC[C@H]1C(=O)N[C@H](C(=O)N[C@@H](Cc1ccc(O)cc1)C(=O)N[C@@H](CCCNC(=N)N)C(=O)N[C@@H](CO)C(=O)N[C@@H](C)C(=O)N[C@@H](CCC(=O)O)C(=O)N[C@@H](C)C(=O)N[C@@H](Cc1c[nH]cn1)C(=O)O)C(C)C [NP 602-617 (REBOV)] the Kd (CEP55 EABR) was 2.18 µM.

VTVPTAPPAYADIGYP gave a specificity [1] of 0.918, a RiboVD_mean_counts [1] of 10451.3 and a RiboVD_count_proportions [1] of 0.1499. The peptide_counts_proportion [1, 2] was 0.298, the peptide_counts_proportion [1, 3] was 0.131 and the peptide_counts_proportion [1, 4] was 0.021.

P36328_1787_1804 was tested, and the motif_found ([1]; bait CD2AP_SH3_1_Q9Y5K6_2_58) was “TRUE”.

CC(C)C[C@H](NC(=O)[C@H](C)NC(=O)[C@@H]1CCCN1C(=O)[C@@H]1CCCN1C(=O)CNC(=O)[C@H](CO)NC(=O)[C@H](C)NC(=O)[C@@H](N)[C@@H](C)O)C(=O)N[C@@H](CCC(=O)O)C(=O)N[C@@H](Cc1c[nH]c2ccccc12)C(=O)N[C@@H](CO)C(=O)N[C@@H](C)C(=O)N[C@H](C(=O)N[C@@H](CC(N)=O)C(=O)N[C@@H](CCC(=O)O)C(=O)N[C@@H](CCCCN)C(=O)O)[C@@H](C)O [P 177-192 (RABV)] showed a Kd (CEP55 EABR) of 22.3 µM.

“PTDSNFYRALMDEEDM [EGFR 992-1007 (Human)]” gave a Kd (AP2M1 MHD) of 2.4 µM.

“LAVGPPSLNYIPPVLQ [TEX14 792-807 (Human)]” was tested, and the Kd (CEP55 EABR) was roughly 0.3 µM and the KD (CEP55 EABR) was “same order or tighter as the probe; also recorded: Due to the limitatons of our experimental setup we could not calculate the KD values for this peptide, however our experiments suggest very high affinity (mid to low nanomolar)”.

Molecule “VDEEKGLYPNLKLTEPTAPMIHNYM [Nsp4 118-142 (BAV)]” has a Kd (ALIX V) of 160 µM.

Work on PPPVLYPNLAELENYM [SDCBP2 39-54 (Human)] yielded a Kd (ALIX V) of 2.1 µM.

For AELNPPPYNHSYESLH, the specificity [1] was 0.98, the RiboVD_mean_counts [1] was 1834 and the RiboVD_count_proportions [1] was 0.03738. For the same molecule, the peptide_counts_proportion [1, 2] was 0.005, the peptide_counts_proportion [1, 3] was 0.079 and the peptide_counts_proportion [1, 4] was 0.028.

With NSMLNPNAVPFQPSPQY [N 2-17 (BeV)] the “affinity compared to the peptide from the endogenous PABP inhibitor PAIP2_108-123” value (PABPC1 PABC) was “ten-fold weaker”.

CC[C@H](C)[C@H](NC(=O)[C@H](CC(=O)O)NC(=O)[C@H](C)NC(=O)[C@H](Cc1ccc(O)cc1)NC(=O)[C@H](C)NC(=O)[C@@H]1CCCN1C(=O)[C@@H]1CCCN1C(=O)[C@H](C)NC(=O)[C@@H](NC(=O)[C@@H]1CCCN1C(=O)[C@@H](NC(=O)[C@@H](NC(=O)[C@@H](NC(=O)[C@H](CCCNC(=N)N)NC(=O)[C@H](CCCNC(=N)N)NC(=O)[C@@H](N)CCSC)C(C)C)[C@@H](C)O)C(C)C)[C@@H](C)O)C(=O)NCC(=O)N[C@@H](Cc1ccc(O)cc1)C(=O)N1CCC[C@H]1C(=O)N[C@@H](CCSC)C(=O)O [VP40 1-20 (SEBOV)] gave a Kd (NEDD4 WW2) of 22 µM and a Kd (NEDD4 WW4) of 68 µM.

With CC(C)C[C@H](NC(=O)[C@H](CC(N)=O)NC(=O)[C@H](CO)NC(=O)[C@H](CCCCN)NC(=S)Nc1ccc2c(c1)C(=O)OC21c2ccc(O)cc2Oc2cc(O)ccc21)C(=O)N[C@@H](CC(N)=O)C(=O)N1CCC[C@H]1C(=O)N[C@@H](CC(N)=O)C(=O)N[C@@H](C)C(=O)N[C@@H](CCCCN)C(=O)N[C@@H](CCC(=O)O)C(=O)N[C@@H](Cc1ccccc1)C(=O)N[C@H](C(=O)N1CCC[C@H]1C(=O)NCC(=O)N[C@H](C(=O)N[C@@H](CCCCN)C(=O)O)C(C)C)C(C)C [FITC - PAIP2 108-123 (Human), reference compound] ({FITC}-KSNLNPNAKEFVPGVK-OH) the Kd (PABPC1 PABC) was 0.38 µM.
